Earlier results, collected in patent publication US11185565B2, “Compositions including milk thistle and methods of use” (GM Pharmaceuticals, Inc., priority 2019, dated 2021).

Experiments:
[1] = deficiency in PQQ, mammals
[2] = addition of chromium to carbohydrate-rich meals
[3] = additional chromium in drinking water; obese and insulin resistant mammals

In the case of `O=C(O)c1cc(C(=O)O)c2c(n1)C(=O)C(=O)c1cc(C(=O)O)[nH]c1-2.[Na].[Na]` [PQQ, pyrroloquinoline quinone disodium], the “decrease in metabolic rate” value [1] is given as roughly 10%.

For `[Cr]` [chromium], the “reduction in blood sugar after the carbohydrate-rich meals” value [2] is given as greater than 20% and the “glucose disposal rates and insulin-stimulated signaling in skeletal muscles” value [3] is given as “significantly improved”.
